Reference: ChEMBL document CHEMBL1156829 (Proc Natl Acad Sci U S A, 2008)

Legend:
[1] = system: Plasmodium falciparum; test: NOVARTIS: Inhibition of Plasmodium falciparum 3D7 (drug-susceptible) proliferation in erythrocyte-based infection assay; type: functional, organism-based; settings: Plasmodium falciparum, 3D7
[2] = NOVARTIS: Cytotoxicity against human hepatocellular carcinoma cell line (Huh7); type: toxicity, cell-based, Huh-7; settings: Huh7 cells (hepatocellular carcinoma cell line)
[3] = system: Plasmodium falciparum; test: NOVARTIS: Inhibition of Plasmodium falciparum W2 (drug-resistant) proliferation in erythrocyte-based infection assay; type: functional, organism-based; settings: Plasmodium falciparum, W2; read-out: EC50

Row | Structure (SMILES) | EC50 [1] [nM] | CC50 [2] [nM] | EC50 [3] [nM]
1 | COC(=O)C1=CN(Cc2ccc(Cl)cc2)C=C(C(=O)OC)C1c1ccc(Cl)c(Cl)c1 | > 8190 | > 100000 | 2360
2 | CCCCCCc1ccc(/C(C=[N+](C)C)=C\N(C)C)cc1 | 335 | > 10000 | 260
3 | Cc1ccc2c(c1)N(CC(=O)NC1CCCCC1C)C(=O)CO2 (configuration not stated) | 2010 | > 10000 | > 815
4 | CCCCNC(=O)C1CCC(CN(Cc2c(Cl)cccc2Cl)S(=O)(=O)c2ccc(Br)cc2)CC1 (configuration not stated) | 546 | > 100000 | 916
5 | CC1CC(=Cc2ccncc2)C(=O)C(=Cc2ccncc2)C1 (configuration not stated) | 1630 | 7770 | 736
6 | CCC(c1nc2ccccc2c(=O)n1-c1ccccc1OC)N(CCc1ccccc1)C(=O)c1ccc(C)cc1 (configuration not stated) | 418 | > 6690 | 174
7 | CC[N+](C)(CC)CCSc1nc2ccccc2c(=S)n1-c1ccc(OC)cc1 | 285 | > 10000 | 451
8 | C=CCNC(=O)c1ccc2c(c1)N=C(/C=C/c1ccccc1)N(CCc1cccc(OC)c1)C2 | 1340 | > 10000 | 1040
9 | COc1ccc(C2CC(=O)C3=C(C2)NC(C)=C(C(=O)OC(C)C)C3c2cccc(C)c2)cc1OC (configuration not stated) | 82.1 | 54800 | 19.1
10 | COc1cc(C(=O)NC(C)C)ccc1OC1CCN(CC(c2ccccc2)c2ccccc2)CC1 | 74.3 | > 100000 | 23.6
11 | CN(C)CC(C)(C)CNCc1cc(-c2ccnc3cc(Cl)ccc23)ccc1O | 880 | > 10000 | 660
12 | CCN1CCN(Cc2cc(=O)oc3cc(-c4ccccc4)c(O)cc23)CC1 | 284 | 12500 | 385
13 | O=C(COc1ccc(Cl)cc1)Nc1nnc(-c2ccc3c(c2)OCO3)s1 | > 1250 | > 13800 | 26.7
14 | COc1cc(Nc2cncc(-c3ccc(C(N)=O)cc3)n2)cc(OC)c1OC | 29.5 | 25300 | 50.1
15 | Cc1c(C#N)c2ccccc2n1CC(=O)Nc1ccc(Br)cc1 | 771 | 11100 | 1030
16 | CCC(C(=O)Nc1sccc1C#N)c1ccccc1 (configuration not stated) | > 971 | > 10000 | > 612
17 | Cc1cc(O)ccc1-c1cnc2ccccc2n1 | > 541 | > 10000 | 241
18 | COC(=O)[C@@H]1C[C@@H](NC(=O)c2ccc(OC)cc2OC)CN1Cc1cc(C)ccc1C | 1070 | > 100000 | 1320
19 | OC1=C2C(=Nc3ccccc3SC2c2cccs2)c2ccccc21 (configuration not stated) | 42.8 | 49500 | < 2.47
20 | C[n+]1ccc(C=Cc2ccccc2F)c2ccccc21 | 57.6 | 81900 | 78.1
21 | COC(=O)C1=C(C)NC2=C(C(=O)CC(c3ccc(OC)c(OC)c3)C2)C1c1ccccc1Br (configuration not stated) | 136 | > 100000 | 73.1
22 | NNC(=O)C1CCCN1S(=O)(=O)c1ccc(Cl)cc1 (configuration not stated) | 564 | > 10000 | 547
23 | N#CC1=C(N)Oc2c3c(c4ccccc4c2C1c1ccc(F)cc1)C(c1ccc(F)cc1)C(C#N)=C(N)O3 (configuration not stated) | 4090 | 21600 | 2440

Row | Structure (SMILES) | EC50 [1] [nM] | CC50 [2] [nM] | EC50 [3] [nM]
24 | CON(C)C(=O)c1cccc2ccccc12 | 856 | > 10000 | > 1250
25 | CCOc1ccc(C(=O)C[N+]2=C(C)c3ccc(C)n3CC2)cc1 | 1630 | > 100000 | 767
26 | c1ccc([Si]2(c3ccccc3)N[Si](c3ccccc3)(c3ccccc3)N[Si](c3ccccc3)(c3ccccc3)N2)cc1 | 521 | > 10000 | 299
27 | Cc1cc(NC(=O)/C=C/c2ccccc2Cl)ccc1Br | 1350 | > 10000 | 1810
28 | O=C(Nn1c(SCc2cc(=O)n3ccccc3n2)nc2ccsc2c1=O)c1cccc(Br)c1 | > 928 | > 10000 | > 695
29 | C=CCSc1ncc(-c2ccc(Cl)cc2)n1C | > 12500 | > 100000 | 1770
30 | COc1ccc(OC)c(-c2ccc(C(=O)N3CCN(C/C=C/c4ccccc4)CC3)c(N(C)C)n2)c1 | 922 | > 10000 | 333
31 | CC(C)c1ccc(-c2cncc(N[C@@H](C)c3ccccc3)n2)cc1 | > 558 | > 10000 | 846
32 | COC(=O)C1=C(C)NC2=C(C(=O)CC(c3ccc(OC)c(OC)c3)C2)C1c1cccc(O)c1 (configuration not stated) | 92 | > 100000 | 50
33 | O=C1CCC2C3C=CC(C3)C12 (configuration not stated) | 1780 | > 12400 | 447
34 | NC12CC3CC(C1)CC(SSC14CC5CC(CC(N)(C5)C1)C4)(C3)C2 | 208 | 1960 | 191
35 | O=C(NC1CC1)C1CCN(c2cccc3c2C(=O)N(Cc2cccc(C(F)(F)F)c2)C3=O)CC1 | 2160 | > 100000 | 1110
36 | Brc1ccc2[nH]c3nc4ccccc4nc3c2c1 | > 12500 | > 100000 | > 5920
37 | Oc1ccc(C=NN=C(Nc2ccccn2)c2ccccn2)c(O)c1 | > 1250 | > 245 | > 674
38 | CC(NCc1cc(-c2ccccc2)ccc1O)c1cccc2ccccc12 (configuration not stated) | 1210 | > 10000 | 77.3
39 | CN(CCCNc1ccnc2cc(Cl)ccc12)C(=O)C1CC1 | 164 | > 7250 | 46.7
40 | C/C(=C\c1ccccc1)CN(C(=O)c1ccc(C(C)(C)C)cc1)C(C)C | 217 | > 5250 | 535
41 | CC(=O)N(C1=C(N2CCC(C)CC2)C(=O)c2ccccc2C1=O)c1cccc(F)c1 | 241 | 66400 | 233
42 | FC(F)(F)c1cccc(NC(=S)N2CCCC2c2ccccc2Cl)c1 (configuration not stated) | 187 | > 100000 | 185
43 | O=C(c1nccs1)C1CCN(C(=O)c2cscn2)CC1 | > 1250 | > 10000 | 1390
44 | COc1ccc(C=Cc2ccc3ccccc3[n+]2C)cc1OC | 441 | > 100000 | 138
45 | N#Cc1ccc2c(c1)nc1c3ccc4c5c(ccc(c(=O)n21)c53)C(=O)NC4=O | 3940 | > 100000 | 867
46 | C=CCc1cc(C=c2sc3n(c2=O)C(c2ccccc2)C(C(=O)OCC)=C(C)N=3)cc(OC)c1O (configuration not stated) | 2500 | > 100000 | 391

Row | Structure (SMILES) | EC50 [1] [nM] | CC50 [2] [nM] | EC50 [3] [nM]
47 | COc1ccc(CN2CCC(Sc3ncccn3)CC2)cc1 | > 1440 | 702 | 950
48 | CC(C)(C)CC(C)(C)Nc1c(-c2ccccc2OC(=O)c2cccc(C(F)(F)F)c2)nc2ccccn12 | 957 | > 10000 | 134
49 | Cc1ncc(CN2CCC(C(=O)Nc3ccc(-n4cccn4)cc3)CC2)s1 | 3190 | > 100000 | 2830
50 | O=C(Cc1cccs1)NC1CCN(CC(O)CN(Cc2ccccc2)S(=O)(=O)c2ccccc2)C1 (configuration not stated) | 181 | > 10000 | > 1250
51 | Cc1cc(N2CCN(C3CCCCC3)CC2)n2c(nc3ccccc32)c1C#N | 63.5 | > 100000 | 203
52 | O=C(c1ccccc1)N1CCN(CC(O)COCc2ccccc2)CC1 (configuration not stated) | > 1250 | > 10000 | 618
53 | CC1CCC2C(C)C(=O)OC3OC4(C)CCC1C32OO4 (configuration not stated) | 12 | > 100000 | 4.58
54 | O=C(COc1ccccc1)NC(c1ccc([N+](=O)[O-])cc1)c1cc(Cl)c2cccnc2c1O (configuration not stated) | 605 | > 80600 | 434
55 | Cc1ccc(OCCCCCCNCCO)c(C)c1 | 1970 | 20400 | 391
56 | O=[N+]([O-])c1cc(C(F)(F)F)ccc1N1CCCN(C(=S)Nc2cccc(C(F)(F)F)c2)CC1 | 149 | 55000 | 130
57 | Cn1c(C(OCC(=O)N2CCN(Cc3ccccc3)CC2)c2cccnc2)cc2ccccc21 (configuration not stated) | 2250 | 38100 | 1100
58 | CCOC(=O)CCC(=O)Oc1ccccc1-c1nc2cc(C)ccn2c1NC(C)(C)CC(C)(C)C | 658 | > 10000 | 79.5
59 | COc1ccc(C2CC3=NC(C)=C(C(=O)OC(C)C)C(c4ccccc4Cl)C3=C(O)C2)cc1OC (configuration not stated) | 6.21 | > 100000 | 4.11
60 | CC(C)NC(=O)c1cc(NC(=O)c2cccs2)ccc1N1CCc2ccccc2C1 | 1260 | 16300 | 479
61 | Cn1c(C(=O)c2cccc3ccccc23)nc2ccccc21 | 6.92 | 21500 | 32.6
62 | CCOC(=O)C1=C(CC)NC2=C(C(=O)CC(C)(C)C2)C1c1ccc(Cl)cc1Cl (configuration not stated) | 208 | > 100000 | 45.9
63 | O=C(NC1CC1)c1ccc(N2CCC(Cc3ccccc3)CC2)c([N+](=O)[O-])c1 | 212 | 53700 | 619
64 | CCCCCCN(C(=O)c1cccc(C(F)(F)F)c1)C(CC)c1nc2ccccc2c(=O)n1-c1ccccc1OC (configuration not stated) | 793 | > 10000 | 790
65 | COc1ccc(NC(=O)CCCCCn2c(SCC(=O)c3ccccc3)nc3ccsc3c2=O)cc1 | 3120 | > 100000 | 3760
66 | CCOc1ccc(-c2cn3c(n2)sc2cc(C(=O)NCCN(CC)CC)ccc23)cc1 | 766 | 47500 | 1270
67 | CCOC(=O)c1c(NC(=O)CSc2nnc(CNC(=O)c3ccc(C)c(C)c3)n2C2CCCCC2)sc2c1CCC2 | > 1090 | > 10000 | > 1400
68 | O=C(Nc1ccc2c(c1)OCO2)c1cc2cc(C3(O)CCN(CCCc4ccccc4)CC3)ccc2o1 | 912 | 6320 | 1180
69 | Cc1oc(C)c2c(=O)cc(-c3cccs3)cc(O)c12 | 1220 | > 100000 | 758
